#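 Cells were grown in 96-well plates and exposed to each compound for 48 hours at five concentrations; endpoints were interpolated linearly between bracketing concentrations, or set to the highest concentration if not reached. GI50: concentration for 50% inhibition of growth.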 The source made the active and inactive calls. Rule as the data show it: active = GI50 up to about 1.1 µM and inactive = higher.
# Experiments:
# Assay in all cases: NCI tumour cell line growth inhibition, 48 h
# OVCAR-5 = system: OVCAR-5
# SK-MEL-5 = system: SK-MEL-5
# PC-3 = system: PC-3
# SF-295 = system: SF-295
# DU-145 = system: DU-145
# SNB-19 = system: SNB-19
# SNB-75 = system: SNB-75
# SK-OV-3 = system: SK-OV-3
# A498 = system: A498
# SF-268 = system: SF-268
# T47D = system: T47D
# OVCAR-8 = system: OVCAR-8
# NCI-H23 = system: NCI-H23
# RXF 393 = system: RXF 393
# Malme-3M = system: Malme-3M
# MCF7 = system: MCF7
# U-251 = system: U-251
# UACC-257 = system: UACC-257
# SK-MEL-2 = system: SK-MEL-2
# OVCAR-4 = system: OVCAR-4
# K562 = system: K562
# LOX IMVI = system: LOX IMVI
# CAKI-1 = system: CAKI-1
# EKVX = system: EKVX
# SF-539 = system: SF-539
# HOP-62 = system: HOP-62
# M14 = system: M14
# COLO 205 = system: COLO 205
# SK-MEL-28 = system: SK-MEL-28
# SW-620 = system: SW-620
# UO-31 = system: UO-31
# MDA-N = system: MDA-N
# TK-10 = system: TK-10
# MDA-MB-435 = system: MDA-MB-435
# ACHN = system: ACHN
# SR = system: SR
# HT-29 = system: HT-29
# KM12 = system: KM12
# OVCAR-3 = system: OVCAR-3
# HCT-15 = system: HCT-15
# HCC 2998 = system: HCC 2998
# NCI/ADR-RES = system: NCI/ADR-RES
# A549 = system: A549
# MDA-MB-231 = system: MDA-MB-231
# RPMI-8226 = system: RPMI-8226
# NCI-H460 = system: NCI-H460
# NCI-H226 = system: NCI-H226
# Hs-578T = system: Hs-578T
# UACC-62 = system: UACC-62
# IGROV-1 = system: IGROV-1
# CCRF-CEM = system: CCRF-CEM
# MOLT-4 = system: MOLT-4
# HOP-92 = system: HOP-92
# SN12C = system: SN12C
# 786-0 = system: 786-0
# NCI-H522 = system: NCI-H522
smiles,measurement,setting,value
CN(C)c1ccc(/C=C2\C[C@H]3[C@@H]4CCc5cc(O)ccc5[C@H]4CC[C@]3(C)C2=O)cc1,GI50,OVCAR-5,> 100 µM (inactive)
same,GI50,SK-MEL-5,> 100 µM (inactive)
same,GI50,PC-3,> 100 µM (inactive)
same,GI50,SF-295,32.6 µM (inactive)
same,GI50,DU-145,> 100 µM (inactive)
same,GI50,SNB-19,> 100 µM (inactive)
same,GI50,SNB-75,28.9 µM (inactive)
same,GI50,SK-OV-3,> 100 µM (inactive)
same,GI50,A498,98.2 µM (inactive)
same,GI50,SF-268,21.3 µM (inactive)
same,GI50,T47D,> 100 µM (inactive)
same,GI50,OVCAR-8,95.1 µM (inactive)
same,GI50,NCI-H23,> 100 µM (inactive)
same,GI50,RXF 393,48.5 µM (inactive)
same,GI50,Malme-3M,> 100 µM (inactive)
same,GI50,MCF7,> 100 µM (inactive)
same,GI50,U-251,36 µM (inactive)
same,GI50,UACC-257,> 100 µM (inactive)
same,GI50,SK-MEL-2,35.6 µM (inactive)
same,GI50,OVCAR-4,> 100 µM (inactive)
same,GI50,K562,> 100 µM (inactive)
same,GI50,LOX IMVI,> 100 µM (inactive)
same,GI50,CAKI-1,> 100 µM (inactive)
same,GI50,EKVX,32.5 µM (inactive)
same,GI50,SF-539,23.4 µM (inactive)
same,GI50,HOP-62,30.5 µM (inactive)
same,GI50,M14,> 100 µM (inactive)
same,GI50,COLO 205,64.7 µM (inactive)
same,GI50,SK-MEL-28,> 100 µM (inactive)
same,GI50,SW-620,> 100 µM (inactive)
same,GI50,UO-31,> 100 µM (inactive)
same,GI50,MDA-N,> 100 µM (inactive)
same,GI50,TK-10,> 100 µM (inactive)
same,GI50,MDA-MB-435,> 100 µM (inactive)
same,GI50,ACHN,56.1 µM (inactive)
same,GI50,SR,> 100 µM (inactive)
same,GI50,HT-29,38.3 µM (inactive)
same,GI50,KM12,> 100 µM (inactive)
same,GI50,OVCAR-3,> 100 µM (inactive)
same,GI50,HCT-15,> 100 µM
same,GI50,HCC 2998,> 100 µM (inactive)
same,GI50,NCI/ADR-RES,> 100 µM (inactive)
same,GI50,A549,> 100 µM (inactive)
same,GI50,MDA-MB-231,16.5 µM (inactive)
same,GI50,RPMI-8226,> 100 µM (inactive)
same,GI50,NCI-H460,> 100 µM (inactive)
same,GI50,NCI-H226,25.1 µM (inactive)
same,GI50,Hs-578T,10.5 µM (inactive)
same,GI50,UACC-62,17.1 µM (inactive)
same,GI50,IGROV-1,48 µM (inactive)
same,GI50,CCRF-CEM,> 100 µM (inactive)
same,GI50,MOLT-4,> 100 µM (inactive)
same,GI50,HOP-92,61.5 µM (inactive)
CC(=C\c1ccccc1)/C=C(\C#N)C(N)=O,GI50,OVCAR-5,> 10 µM (inactive)
same,GI50,SK-MEL-5,> 10 µM (inactive)
same,GI50,PC-3,> 10 µM (inactive)
same,GI50,SF-295,> 10 µM (inactive)
same,GI50,DU-145,> 10 µM (inactive)
same,GI50,SNB-75,> 10 µM (inactive)
same,GI50,SK-OV-3,> 10 µM (inactive)
same,GI50,A498,> 10 µM (inactive)
same,GI50,SF-268,> 10 µM (inactive)
same,GI50,T47D,> 10 µM (inactive)
same,GI50,OVCAR-8,> 10 µM (inactive)
same,GI50,RXF 393,> 10 µM (inactive)
same,GI50,Malme-3M,> 10 µM (inactive)
same,GI50,MCF7,> 10 µM (inactive)
same,GI50,U-251,> 10 µM (inactive)
same,GI50,SN12C,> 10 µM (inactive)
same,GI50,SK-MEL-2,> 10 µM (inactive)
same,GI50,LOX IMVI,> 10 µM (inactive)
same,GI50,CAKI-1,> 10 µM (inactive)
same,GI50,786-0,> 10 µM (inactive)
same,GI50,EKVX,> 10 µM (inactive)
same,GI50,SF-539,> 10 µM (inactive)
same,GI50,HOP-62,> 10 µM (inactive)
same,GI50,M14,> 10 µM (inactive)
same,GI50,COLO 205,> 10 µM (inactive)
same,GI50,SK-MEL-28,> 10 µM (inactive)
same,GI50,SW-620,> 10 µM (inactive)
same,GI50,UO-31,> 10 µM (inactive)
same,GI50,MDA-N,> 10 µM (inactive)
same,GI50,TK-10,> 10 µM (inactive)
same,GI50,MDA-MB-435,> 10 µM (inactive)
same,GI50,ACHN,> 10 µM (inactive)
same,GI50,HT-29,> 10 µM (inactive)
same,GI50,KM12,> 10 µM (inactive)
same,GI50,OVCAR-3,> 10 µM (inactive)
same,GI50,HCT-15,> 10 µM
same,GI50,NCI-H522,> 10 µM (inactive)
same,GI50,HCC 2998,> 10 µM (inactive)
same,GI50,NCI/ADR-RES,> 10 µM (inactive)
same,GI50,MDA-MB-231,> 10 µM (inactive)
same,GI50,NCI-H460,> 10 µM (inactive)
same,GI50,NCI-H226,> 10 µM (inactive)
same,GI50,Hs-578T,> 10 µM (inactive)
same,GI50,IGROV-1,> 10 µM (inactive)

# Source: ChEMBL document CHEMBL1201862, “PubChem BioAssay data set” (2004)
